Structures can show the parent of a compound that is named as a salt.
Assays:
acetylcholinesterase [1] = target: T1, acetylcholinesterase (Electrophorus electricus, UniProt O42275); test: bioautographic TLC test for AChE inhibitory activity (Ellman's method); format: biochemical; set-up: purchased Sigma-Aldrich Chemie GmbH, Steinheim, Germany; conditions: spots of methanolic extract of S. carniolica rhizomes, Rf 0.6 (SCT) and 0.4 (SCN); false positives excluded
Experimental: The AChE inhibitory activity of the methanolic crude extract was qualitatively determined in a TLC assay using Ellman's method (Ellman, et al, 1961). Additionally a test to exclude false positive results was conducted described by Rhee et al, 2003. The used silica gel TLC plates 60F254 (0.2 mm thickness) were purchased from Merck (Darmstadt, Germany). […] Enzyme inhibitory activities were detected by spraying the substrate, dye and enzyme described by Rhee and coauthors (Rhee et al, 2001).
(§1) In both test systems, the enzyme (acetylcholinesterase, Sigma-Aldrich Chemie GmbH, Steinheim, Germany) hydrolyzes the substrate acetylthiocholine (acetylthiocholiniodid, Sigma-Aldrich Chemie GmbH, Steinheim, Germany) to produce thiocholine. This reacts with Ellman's reagent (5,5'-dithiobis-(2-nitrobenzoic acid), Sigma-Aldrich Chemie GmbH, Steinheim, Germany) resulting in 5-thio-2-nitrobenzoate and the yellow colored 2-nitrobenzoate-5-mercaptothiocholine. This latter was visually detected in the TLC test.

acetylcholinesterase [2] = target: T1, acetylcholinesterase; test: biochemical
Source text: as §1
The self absorbance of all ingredients of the assay was corrected by subtracting the absorbance at time zero from the subsequent absorbance values. […] For all three substances the concentration dependence of their AChE inhibitory activity was determined. Percentage of the enzyme inhibition was calculated by comparing the rates for the sample to the blank (containing 1% DMSO) and analyzed with Student's t-test.

[3] = test system: extracellular concentration of ACh in the nucleus accumbens; test: in vivo extracellular ACh concentration, push-pull technique, i.c.v. injection; set-up: species or system Sprague-Dawley rats; conditions: 2 µmol i.c.v.; for extracellular concentration of ACh (relative value, means ± SEM): mean before drug = 1.0
Source text: Surgery and push-pull technique: Sprague-Dawley rats (250-350 g) were anaesthetized with urethane 1,2 g/kg, i.p. The head was fixed in a stereotaxic frame and a push-pull cannula (outer tubing: o.d. 0.75 mm, i.d. 0.41 mm; inner tubing: o.d. 0.26 mm, i.d. 0.13 mm) was mounted on a microdrive. This was stereotaxically inserted through a hole in the skull into the nucleus accumbens (coordinates, mm from bregma: AP, +1.2; L, +2.5; V, -7.8; Paxinos & Watson, 1998). A second hole was drilled into the skull for the i.c.v. application of drugs (coordinates, mm from bregma: AP, -2,8; L, +1,5) The nucleus accumbens was superfused at 20µL/min with artificial cerebrospinal fluid (aCSF), pH 7.2. The CSF consisted of: NaCl,140; KCI, 3; CaCl2, 1.2; MgCl2 1; Na2HPO4, 1; NaH2PO4, 0.3; glucose 3.0 (mmol I^-1), neostigmine 1.0 (µmol/l^-1). After 1 h of the cannula insertion the samples were collected into tubes kept at -20° C in time periods of 10 min and then stored at -80° C until acetylcholine (Ach) was determined.
Using a motorized microsyringe connected to a stereotaxic microdrive, the tip was introduced with an angle of 60° through the drug application-hole into the ipsilateral ventricle (coordinates mm from bregma: AP, -0,9; L, +1,5; V, -3,8) via a cannula (o.d., 0,65; i.d., 0,38). The drug solutions were injected at 2µL/min. The control rats were injected with the vehicle (DMSO: EtOH 1:1).
Histology: At the end of the experiment the rat was killed with an overdose of urethane, the brain was removed and stored in buffered formaldehyde solution (7%). Serial coronal sections were cut at 50 µm intervals. Localisation of the push-pull cannula and i.c.v. microinjection was verified. Experiments with unsatisfactory localisation were discarded.
Determination of acetylcholine: (Ach): ACh content in the samples was determined by HPLC with a cation-exchanging analytical column and a post-column reactor followed by electrochemical detection (Damsma et al, 1997; Prast et al; 1998). The system consisted of a HPLC-pump (JASCO PU-1580, Jasco Corporation, Tokyo, Japan), a pulse dampener and an autosampler (AS-4000, Hitachi Ltd., Tokyo, Japan) with a 100-µL sample loop. […] The peroxide was electrochemically detected by a UniJet platin electrode (3mm) at +500 mV with an amperometric detector (BAS LC-4, Bioanalytical Systems, West Lafayette, IN, USA). […] ACh was quantified with external standards that were injected at the beginning and the end of the analysis.
Statistical significance of drug effects on the extracellular ACh concentration was calculated by Friedman's analysis of variance, followed by Wilcoxon's signed rank test for paired data (a p<0.08, * p<0.05, ** p<0,001) using the mean concentration rate before the administration of drugs as controls. […]

mice [4] = test: T-maze continuous alternation; format: in vivo
Experimental: (§2) […] female, 3-month mice, weighing 20 - 27 g, were used in the present study. The animals were housed in groups of six to ten in cages (40 (L) x 25 (W) x 15 (H) cm) placed in a room at a constant temperature (22±1 °C), 12-light/ 12-dark cycle (07:00-19:00 h), with food and water ad libitum. Experiments were conducted between 09:00 and 16:00h.
(§3) Mice were anaesthetized with Pentobarbital sodium (60 mg/kg, i.p.) and placed in a stereotaxic frame. A guide cannula (gauge 25, o.d. 0.52 mm, i.d, 0.26 mm and 7 mm long) was stereotaxically implanted through a hole on the skull into the brain area 0.5 mm higher than the third cerebral ventricle (-0.1 mm posterior, 0.8 mm lateral to bregma, -2.2 mm ventral to the dura) (Franklin and Paxinos, 1997). Guide cannula was secured to the skull using two small screws and dental cement. The microinjector (Hamilton gauge 32, o.d. 0.24 mm and i.d. 0.11 mm, 7.5 mm long) protruded 0.5 mm from the tip of the guide cannula to reach the cerebral ventricle. Mice recovered for 5 days before any experimentation was done.
Scopolamine hydrobromide (Sigma, St. Louis, MO, U.S.A.) was dissolved in saline. SCT (Sigma-Aldrich Chemie GmbH, Steinheim, Germany) was dissolved in vehicle solution (DMSO:sterile water, 3:7). The animals were randomly divided into experimental groups and administered a cerebral ventricle injection of saline, scopolamine, SCT or scopolamine and SCT in a volume of 1 or 2 µl during 1 min. The injector was left in place an extra 1 min for drug diffusion after injection. These substances and vehicle were injected 15 min prior to the test.
Animals were randomly divided into […] experimental groups (6 mice per group) as follows: vehicle, scopolamine hybrobromide 20 µg (50 nmol) in 1µl ICV, SCT 2 µg (10 nmol) in 2µl ICV and scopolamine hybrobromide 20 µg plus SCT 2 µg ICV. All substances were injected 15 min before the test (T-maze and open field) or before the training trial T1 (object recognition test) through the 7.5 mm long injector connected with i.d. 0.28 mm polyethylene tubing to 5 µl Hamilton syringe. […]

mice [5] = test: open field locomotor behaviour; format: in vivo; conditions: 2 µg ICV, 30 min
Experimental: as §2
as §3, with “done. […]” for “done.”
The open field consisted of a transparent plastic box with white floor (41 x 41 x 41 cm) equipped with an automated activity monitoring system (True Scan, Coulbourn Instruments, Allentown, USA). […] The time spent in box and the overall distance travelled by the mice were monitored for 30 min. […]

mice [6] = test: object recognition task; format: in vivo
Experimental: as §2, §3
Scopolamine hydrobromide (Sigma, St. Louis, MO, U.S.A.) was dissolved in saline. […]
Exploration was defined as follows: directing the nose toward the object at a distance of less than 0.5 cm and/or touching the object with the nose. […] The times spent by mice in exploring each object during T1 and T2 were recorded manually by using a stopwatch. […]

T1 sequence (O42275 24-633): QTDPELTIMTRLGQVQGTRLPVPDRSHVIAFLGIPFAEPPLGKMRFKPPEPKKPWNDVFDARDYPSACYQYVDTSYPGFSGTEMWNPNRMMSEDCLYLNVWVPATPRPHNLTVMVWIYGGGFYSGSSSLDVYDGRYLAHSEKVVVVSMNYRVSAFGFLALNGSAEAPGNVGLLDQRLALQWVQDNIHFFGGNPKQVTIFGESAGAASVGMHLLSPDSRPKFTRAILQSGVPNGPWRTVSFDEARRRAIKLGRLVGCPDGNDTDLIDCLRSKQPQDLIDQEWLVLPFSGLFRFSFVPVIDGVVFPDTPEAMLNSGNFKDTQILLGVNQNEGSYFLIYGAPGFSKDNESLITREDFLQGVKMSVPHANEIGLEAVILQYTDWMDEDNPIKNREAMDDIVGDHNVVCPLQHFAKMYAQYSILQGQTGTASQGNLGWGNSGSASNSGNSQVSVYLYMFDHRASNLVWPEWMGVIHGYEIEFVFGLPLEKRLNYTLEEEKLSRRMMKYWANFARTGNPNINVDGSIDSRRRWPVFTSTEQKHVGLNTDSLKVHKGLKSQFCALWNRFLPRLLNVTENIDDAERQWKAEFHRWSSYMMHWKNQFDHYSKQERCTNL

In the case of COc1cc2ccc(=O)oc2cc1O[C@@H]1O[C@H](CO)[C@@H](O)[C@H](O)[C@H]1O [SCN, scopolin], the “AChE inhibitory activity of fluorescent TLC spot” value (acetylcholinesterase [1]) is reported as “positive”, the “inhibition of AChE, statistical significance” value (acetylcholinesterase [2]; 1000, 500 and 250 µM) is reported as “significant” and the inhibition at 1000 µM (acetylcholinesterase [2]; read-out: AChE inhibitory activity) is reported as 30.1%. For the same compound, the “time until inhibitory activities reach their maximum extent” value (acetylcholinesterase [2]; three highest concentrations) was at most 15 min, the “change of inhibitory activity towards endpoint of measurement at 90 min” value (acetylcholinesterase [2]; three highest concentrations, after maximum in first 15 min) was “slight decrease” and the “ACh concentration after decline, of basal value” ([3]; following the initial peak) was “about 200%”. The “initial peak concentration of ACh, of basal value” ([3]; rat nucleus accumbens) was “about 400%” and the “extracellular concentration of ACh (relative value, means ± SEM)” value ([3]; rat nucleus accumbens) was 3.18 ± 0.78.
For COc1cc2ccc(=O)oc2cc1O [SCT, scopoletin], the alternation rate (mice [4]; 2 µg ICV alone) was 63 ± 5%, the “effect on scopolamine-induced decrease in alternation rate” value (mice [4]; SCT 2 µg ICV plus scopolamine 20 µg ICV) was “abolished” and the “AChE inhibitory activity of fluorescent TLC spot” value (acetylcholinesterase [1]) was “positive”. The “change of inhibitory activity up to 90 min” value (acetylcholinesterase [2]; higher concentrations (250, 500, 1000 µM)) was “slight, almost insignificant increase”, the “duration of inhibitory activity” value (acetylcholinesterase [2]; lower concentrations (62.5, 125 µM)) was “at least 90 min” and the “time until level of inhibitory activity is reached” value (acetylcholinesterase [2]; lower concentrations (62.5, 125 µM), after adding enzyme to substrate) was at most 15 min. For the same compound, the “move distance, reduction compared to vehicle-treated controls” value (mice [5]) was “about 20%”, the “move time in the open field” value (mice [5]; vs vehicle-treated controls) was “only slightly decreased” and the “extracellular concentration of ACh (relative value, means ± SEM)” value ([3]; rat nucleus accumbens) was 1,74 ± 0,24. For the same compound, the “discrimination index, effect on scopolamine-induced impairment of object recognition” value (mice [6]; SCT 2 µg ICV plus scopolamine 20 µg ICV, 15 min before T1, mice) was “significantly increased”.
With CN1[C@@H]2C[C@@H](OC(=O)[C@H](CO)c3ccccc3)C[C@H]1[C@@H]1O[C@@H]12 [Scopolamine, Scopolamine hydrobromide, reference compound] the “effect on alternation rate” value (mice [4]; 20 µg ICV) was “pronounced decrease” and the “effect on learning in object recognition (discrimination novel vs familiar object in T2)” value (mice [6]; 20 µg ICV, mice) was “drastic impairment of learning”.
